Source: patent publication US20170042148A1, “USE OF A DICARBOXYLIC ACID TO CONTROL THE GROWTH OF HOLOPARASITIC OR HEMIPARASITIC PLANTS” (UNIVERSITE CLAUDE BERNARD LYON I, priority 2014, published 2017)

What was measured:
[1] = system: Striga hermontica; test: Herbicidal effect on Striga hermontica growth in a microtiter plate (procaulome length); assay type: in vivo; settings: for Striga inhibition: 2 mg/mL of buffer, procaulome size after 3 days at 30° C. with GR24
Protocol: The activity of the diacids on the parasitic plants Striga and Orobanche was tested by preparing solutions of the selected diacid in water or in phosphate buffer (50 mM, pH 7) at concentrations of 1 to 20 mg/mL.
1. In a 12-well microtiter plate, filter papers (Whatman 3) are placed at the bottom of the wells and moistened with sterile water. About 30 sterilized seeds (rinsed with 70% ethanol, then 1% (w/v) Ca(ClO)2 and Tween® 20, then thoroughly with water) of the holo- or hemiparasitic plants are placed, in each well, on the surface of the filter papers. After 10 days of incubation at 30° C. and in the dark, increasing amounts of a diacid or of culture supernatant are added, in the presence of a germination stimulant, GR24. After 3 days of incubation at 30° C., the development of the parasitic plants in the presence of a diacid or of culture supernatant is compared to the negative control (water, phosphate buffer or sterile culture medium), with a macroscope coupled to a camera. The length of the procaulomes (radicles) of the holo- or hemiparasitic plants is measured in order to express the phytotoxic capacity of the tested products.

[2] = system: Striga hermontica; test: Emergence of Striga seedlings in soil mesocosms with sorghum; assay type: in vivo; settings: soil mesocosm with sorghum, after 2 months
Protocol: 2. Striga hermontica seeds (about 100 seeds/pot) and sorghum seeds (1 seed/pot) were introduced simultaneously into soil mesocosms, in the presence of increasing amounts of malic acid (2 and 20 g/L) or of culture supernatant, then grown in a greenhouse or a plot. The emergence of Striga seedlings is estimated visually, after 2 months of incubation. Phytotoxic capacity is estimated by comparison with a control without added malic acid or culture supernatant. A decrease of 22% in the number of Striga seedlings having emerged, compared to the control condition, is observed in the presence of 2 g/L malic acid and of 90% in the presence of 20 g/L malic acid. In the presence of the bacterial supernatant, a decrease of 58% in the number of Striga compared to the control condition was observed.

Row | SMILES | Striga inhibition [1] | other results
1 | O=C(O)C[C@H](O)C(=O)O [L-Malic acid] | ++ (strong inhibition (procaulome size < 0.2 mm)) | effect on procaulome growth (FIG. 1) ([1]; supernatant of strain grown in Nfb*, L-malic acid 2 mg/mL in phosphate buffer): inhibitory effect
2 | O=C(O)/C=C\C(=O)O [Maleic acid] | ++ (strong inhibition (procaulome size < 0.2 mm)) | 
3 | O=C(O)CCCC(=O)O [Glutaric acid] | ++ (strong inhibition (procaulome size < 0.2 mm)) | 
4 | O=C(O)CC(O)C(=O)O (racemic) [DL-Malic acid] | + (weak inhibition (procaulome size between 0.2 and 0.8 mm)) | 
5 | O=C(O)C#CC(=O)O [Acetylene dicarboxylic acid] | ++ (strong inhibition (procaulome size < 0.2 mm)) | 
6 | O=C(O)C(=O)O [Oxalic acid] | ++ (strong inhibition (procaulome size < 0.2 mm)) | 
7 | O=C(O)CC(=O)O [Malonic acid] | ++ (strong inhibition (procaulome size < 0.2 mm)) | 
8 | O=C(O)CC(O)C(=O)O (stereo not shown) [malic acid] |  | decrease in the number of Striga seedlings having emerged, compared to the control condition ([2]; 2 g/L malic acid): 22%; decrease in the number of Striga seedlings having emerged, compared to the control condition ([2]; 20 g/L malic acid): 90%
